According to PMC8125507, “Molecular Mechanism of Thymidylate Synthase Inhibition by N^4-Hydroxy-dCMP in View of Spectrophotometric and Crystallographic Studies” (International Journal of Molecular Sciences, 2021):

Tests used:
Type in all cases: binding
CeTS = target: T1, CeTS (Caenorhabditis elegans, UniProt Q9Y052); test: X-ray crystal structure, soaked crystal, […] Å; details: apoenzyme crystal soaked with 36 mM ligand ca. 80 min, pH 5.6; no folate; active site of both subunits, non-covalent
T1 construct: recombinant, non-phosphorylated fraction; dimer; catalytic Cys197; residues 24-312 modelled
T1 sequence (Q9Y052 entry or part of it): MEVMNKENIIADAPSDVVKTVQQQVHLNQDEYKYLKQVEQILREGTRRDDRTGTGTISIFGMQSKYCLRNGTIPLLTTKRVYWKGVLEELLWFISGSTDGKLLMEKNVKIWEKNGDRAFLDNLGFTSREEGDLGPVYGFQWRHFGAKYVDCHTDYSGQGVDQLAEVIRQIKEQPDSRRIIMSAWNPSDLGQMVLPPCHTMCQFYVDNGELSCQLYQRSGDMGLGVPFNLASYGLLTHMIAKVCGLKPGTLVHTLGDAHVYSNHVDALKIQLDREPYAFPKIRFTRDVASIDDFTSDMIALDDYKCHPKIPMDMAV

mTS = target: T2, mTS (Mus musculus, UniProt P07607); test: X-ray crystal structure, co-crystal soaked with meTHF, […] Å; details: pH 6.7; folate derivative also bound; active site of both subunits, non-covalent
T2 construct: gene Tyms; recombinant, non-phosphorylated fraction for crystals; dimer; catalytic Cys189; residues 21-307 modelled
T2 sequence (P07607 whole entry, the tested form may be a part): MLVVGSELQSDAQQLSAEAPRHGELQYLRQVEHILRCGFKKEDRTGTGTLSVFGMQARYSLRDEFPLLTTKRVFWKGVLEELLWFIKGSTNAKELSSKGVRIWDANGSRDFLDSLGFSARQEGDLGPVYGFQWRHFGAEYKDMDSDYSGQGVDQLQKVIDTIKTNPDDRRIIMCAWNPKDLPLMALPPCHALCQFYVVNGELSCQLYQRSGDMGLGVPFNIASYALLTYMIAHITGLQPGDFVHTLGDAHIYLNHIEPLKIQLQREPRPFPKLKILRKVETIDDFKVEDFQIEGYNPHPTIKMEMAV

TspTS = target: T3, TspTS (Trichinella spiralis, UniProt Q9NDD3); test: X-ray crystal structure, co-crystal, […] Å; details: co-crystallized with meTHF, pH 7.1; covalent to Cys189 Sγ via pyrimidine C(6); bound form reduced at C(5); no folate seen
T3 construct: gene ts; recombinant, non-phosphorylated fraction; dimer; catalytic Cys189; residues 18-307 modelled in part
T3 sequence (Q9NDD3 entry or part of it): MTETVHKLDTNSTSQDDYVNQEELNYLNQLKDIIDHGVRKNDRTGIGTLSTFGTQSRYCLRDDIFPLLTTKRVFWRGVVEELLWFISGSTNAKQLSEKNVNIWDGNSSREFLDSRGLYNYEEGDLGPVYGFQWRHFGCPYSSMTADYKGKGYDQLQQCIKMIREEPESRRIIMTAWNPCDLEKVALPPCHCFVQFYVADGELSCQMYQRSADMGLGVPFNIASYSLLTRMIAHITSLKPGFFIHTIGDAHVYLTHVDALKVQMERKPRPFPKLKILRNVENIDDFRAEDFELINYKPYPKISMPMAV

O=c1nc(NO)ccn1[C@H]1C[C@H](O)[C@@H](COP(=O)(O)O)O1 [N^4-OH-dCMP, N^4-hydroxy-2′-deoxycytidine 5′-monophosphate]
X-ray crystal structure, soaked crystal, 2.8 Å (CeTS): with N^4-OH-dCMP molecules in both active sites refined with full occupancy
X-ray crystal structure, co-crystal soaked with meTHF, 2.13 Å (mTS): N^4-OH-dCMP molecules are modeled with full occupancy
X-ray crystal structure, co-crystal, 1.18 Å (TspTS): a clear electron density was present, identified as the N^4-OH-dCMP molecule
